Results published in US20090215717A1, “Sulfated oligosaccharides” (Ivax Drug Research Institute Ltd., priority 2004, published 2009).
Where a name gives a salt, the structure may show the parent alone. Read-outs that look alike come from different tables or passages of the source.

Columns and labels:
BN rats [1] = assay: Allergen stimulated mucus production of airways epithelial cells, PAS(+) cell count (Model 2); type: in vivo, rat; details: for number of PAS(+) cells as percent of total number of cells (average ± SEM): lungs 48 h after challenge, challenge 27.6 ± 3.5, control 2.9 ± 0.9
Description: Sensitized BN rats were treated intratracheally with 0.01 or 1.0 mg/kg dose of compound of formula (IIA), two hours before antigenic challenge, using a similar protocol described in Model 1. Lungs were collected 48 hours after challenge and were fixed in 8% phophospate buffered formaldehyde. Samples were then processed for histochemistry routinely. 5 μm thick sections were stained with periodic-acid-Schiff (PAS) reagents and were counterstained with haematoxylin-eosine. On the sections each epithelial cells of the airways were counted in the whole preparation at a magnification of 400×. The number of PAS(+) [mucus producing] epithelial cells was expressed as the ratio of the […] of epithelial cells.
As it is shown in Table 2, allergen challenge stimulates the mucus production of airways epithelial cells (control vs. challenge).

BN rats [2] = assay: Perivascular oedema in asthmatic lung tissue (Model 3); type: in vivo, rat; details: for Oedema: area of oedema relative to area of vasculature (average ± SEM): lungs 48 h after challenge, challenge 224 ± 17, control 71 ± 7
Description: Sensitized BN rats were treated intratracheally with 0.01 and 1.0 mg/kg dose of compound of formula (IIA), two hours before antigenic challenge, using a similar protocol described in Model 1. Lungs were collected 48 hours after challenge and were fixed in 8% phosphate buffered formaldehyde. Samples were then processed for histochemistry routinely. […] thick sections were stained with periodic-acid-Schiff (PAS) reagents and were counterstained with haematoxylin-eosine. On the sections the areas of the connective tissue around the vasculare were determined and expressed as a ratio of the area of the corresponding blood vessel itself.

Brown Norway (BN) rats = assay: Tracheal contraction to acetylcholine ex vivo after antigen challenge of ovalbumin-sensitized BN rats (Model 1); type: in vivo, rat; details: for MAX: contraction at maximal Ach concentration relative to control (mean ± SEM): placebo 220 ± 30, control 100 ± 0; for ED50: log M acetylcholine (Ach), causing 50% contraction relative to control (mean ± SEM): trachea 48 h post challenge, placebo 6.10 ± 0.30, control 5.16 ± 0.08
Description: Examination of the effect of locally administered sulfated oligosaccharides on airways' hyper-responsiveness ex vivo.
Brown Norway (BN) rats were actively sensitized to ovalbumin (OA) by a subcutaneous injection of 0.5 ml of OA/Al(OH)3 gel mixture (2 mg OA+10 g Al(OH)3/100 ml saline) on day 1 with subsequent subcutaneous injections (10 mg OA+10 g Al(OH)3/100 ml saline) given on days 14 and 21. On day 28, animals received the compound of formula (IIA) intratracheally (0.01 or 1.0 mg/kg dose) 2 hours before antigen challenge. Antigen challenge was performed by inhalation of nebulised ovalbumin (1% antigen solution administered in a TSE inhalation system for 1 hour). Animals were sacrificed 48 hours post antigen challenge wherein the tracheas were removed to an organ bath. Dissected tracheas were allowed to equilibrate for 30 minutes before measuring tracheal spasmogenic response curves to acetylcholine (Ach).
As shown in Table 1 ovalbumin challenge of sensitized animals in this model caused a significant tracheal hyper-reactivity to acetylcholine, when the response to the spasmogenic agent was determined 48 h after antigen challenge.

IP-3 receptor = molecular target: T1, IP-3 receptor (Rattus norvegicus, UniProt P29994); assay: IP-3 receptor antagonistic effect, rat cerebellum membrane preparations (Model 5); type: binding; details: for IC50 Average ± SEM (n) / IC50: inhibition of IP-3 binding
T1 construct: rat cerebellum membrane preparations; from tissue; host or cells: rat cerebellum (microsomal membrane preparation)
Description: The sulfated oligosaccharides of the present invention, depending on their chemical structure, inhibit the binding of inositol-1,4,5-trisphophate […] to its receptor in microsomal membrane preparations. As IP-3 is a messenger molecule playing distinguished role in the activation of different cells, interfering with this function can explain the anti-asthmatic effect of these sulfated oligosaccharides.
The IP-3 antagonist effect of the sulfated oligosaccharides was determined using rat cerebellum membrane preparations according to Worley et al. (JBC 262, 12132, 1987).

BN rats [3] = assay: Eosinophilia in bronchoalveolar lavage fluid (Model 4); type: in vivo, rat; details: for Eosinophil: eosinophil number/ml BALF (average ± SEM): BALF 48 h after challenge, challenge 1.00 ± 0.16, control 0.35 ± 0.04
Description: Sensitized BN rats were treated intratracheally with 0.01 and 1.0 mg/kg dose of compound of formula (IIA); two hours before antigenic challenge, using a similar protocol described in Model 1. Bronchoalveolar lavage fluids (BALF) were collected 48 hours after challenge and after staining, the number of eosinophils were determined.
As it is shown in Table 4, allergen challenge causes an increase in the number of eosinophils in the bronchioalveolar lavage.

[4] = 0.01 mg/kg intratracheally 2 h before challenge
[5] = 1.0 mg/kg intratracheally 2 h before challenge
[6] = higher dose (1.0 mg/kg intratracheally)
[7] = 0.01 mg/kg intratracheally 2 h before antigen challenge
[8] = 1.0 mg/kg intratracheally 2 h before antigen challenge

T1 sequence (P29994 whole entry): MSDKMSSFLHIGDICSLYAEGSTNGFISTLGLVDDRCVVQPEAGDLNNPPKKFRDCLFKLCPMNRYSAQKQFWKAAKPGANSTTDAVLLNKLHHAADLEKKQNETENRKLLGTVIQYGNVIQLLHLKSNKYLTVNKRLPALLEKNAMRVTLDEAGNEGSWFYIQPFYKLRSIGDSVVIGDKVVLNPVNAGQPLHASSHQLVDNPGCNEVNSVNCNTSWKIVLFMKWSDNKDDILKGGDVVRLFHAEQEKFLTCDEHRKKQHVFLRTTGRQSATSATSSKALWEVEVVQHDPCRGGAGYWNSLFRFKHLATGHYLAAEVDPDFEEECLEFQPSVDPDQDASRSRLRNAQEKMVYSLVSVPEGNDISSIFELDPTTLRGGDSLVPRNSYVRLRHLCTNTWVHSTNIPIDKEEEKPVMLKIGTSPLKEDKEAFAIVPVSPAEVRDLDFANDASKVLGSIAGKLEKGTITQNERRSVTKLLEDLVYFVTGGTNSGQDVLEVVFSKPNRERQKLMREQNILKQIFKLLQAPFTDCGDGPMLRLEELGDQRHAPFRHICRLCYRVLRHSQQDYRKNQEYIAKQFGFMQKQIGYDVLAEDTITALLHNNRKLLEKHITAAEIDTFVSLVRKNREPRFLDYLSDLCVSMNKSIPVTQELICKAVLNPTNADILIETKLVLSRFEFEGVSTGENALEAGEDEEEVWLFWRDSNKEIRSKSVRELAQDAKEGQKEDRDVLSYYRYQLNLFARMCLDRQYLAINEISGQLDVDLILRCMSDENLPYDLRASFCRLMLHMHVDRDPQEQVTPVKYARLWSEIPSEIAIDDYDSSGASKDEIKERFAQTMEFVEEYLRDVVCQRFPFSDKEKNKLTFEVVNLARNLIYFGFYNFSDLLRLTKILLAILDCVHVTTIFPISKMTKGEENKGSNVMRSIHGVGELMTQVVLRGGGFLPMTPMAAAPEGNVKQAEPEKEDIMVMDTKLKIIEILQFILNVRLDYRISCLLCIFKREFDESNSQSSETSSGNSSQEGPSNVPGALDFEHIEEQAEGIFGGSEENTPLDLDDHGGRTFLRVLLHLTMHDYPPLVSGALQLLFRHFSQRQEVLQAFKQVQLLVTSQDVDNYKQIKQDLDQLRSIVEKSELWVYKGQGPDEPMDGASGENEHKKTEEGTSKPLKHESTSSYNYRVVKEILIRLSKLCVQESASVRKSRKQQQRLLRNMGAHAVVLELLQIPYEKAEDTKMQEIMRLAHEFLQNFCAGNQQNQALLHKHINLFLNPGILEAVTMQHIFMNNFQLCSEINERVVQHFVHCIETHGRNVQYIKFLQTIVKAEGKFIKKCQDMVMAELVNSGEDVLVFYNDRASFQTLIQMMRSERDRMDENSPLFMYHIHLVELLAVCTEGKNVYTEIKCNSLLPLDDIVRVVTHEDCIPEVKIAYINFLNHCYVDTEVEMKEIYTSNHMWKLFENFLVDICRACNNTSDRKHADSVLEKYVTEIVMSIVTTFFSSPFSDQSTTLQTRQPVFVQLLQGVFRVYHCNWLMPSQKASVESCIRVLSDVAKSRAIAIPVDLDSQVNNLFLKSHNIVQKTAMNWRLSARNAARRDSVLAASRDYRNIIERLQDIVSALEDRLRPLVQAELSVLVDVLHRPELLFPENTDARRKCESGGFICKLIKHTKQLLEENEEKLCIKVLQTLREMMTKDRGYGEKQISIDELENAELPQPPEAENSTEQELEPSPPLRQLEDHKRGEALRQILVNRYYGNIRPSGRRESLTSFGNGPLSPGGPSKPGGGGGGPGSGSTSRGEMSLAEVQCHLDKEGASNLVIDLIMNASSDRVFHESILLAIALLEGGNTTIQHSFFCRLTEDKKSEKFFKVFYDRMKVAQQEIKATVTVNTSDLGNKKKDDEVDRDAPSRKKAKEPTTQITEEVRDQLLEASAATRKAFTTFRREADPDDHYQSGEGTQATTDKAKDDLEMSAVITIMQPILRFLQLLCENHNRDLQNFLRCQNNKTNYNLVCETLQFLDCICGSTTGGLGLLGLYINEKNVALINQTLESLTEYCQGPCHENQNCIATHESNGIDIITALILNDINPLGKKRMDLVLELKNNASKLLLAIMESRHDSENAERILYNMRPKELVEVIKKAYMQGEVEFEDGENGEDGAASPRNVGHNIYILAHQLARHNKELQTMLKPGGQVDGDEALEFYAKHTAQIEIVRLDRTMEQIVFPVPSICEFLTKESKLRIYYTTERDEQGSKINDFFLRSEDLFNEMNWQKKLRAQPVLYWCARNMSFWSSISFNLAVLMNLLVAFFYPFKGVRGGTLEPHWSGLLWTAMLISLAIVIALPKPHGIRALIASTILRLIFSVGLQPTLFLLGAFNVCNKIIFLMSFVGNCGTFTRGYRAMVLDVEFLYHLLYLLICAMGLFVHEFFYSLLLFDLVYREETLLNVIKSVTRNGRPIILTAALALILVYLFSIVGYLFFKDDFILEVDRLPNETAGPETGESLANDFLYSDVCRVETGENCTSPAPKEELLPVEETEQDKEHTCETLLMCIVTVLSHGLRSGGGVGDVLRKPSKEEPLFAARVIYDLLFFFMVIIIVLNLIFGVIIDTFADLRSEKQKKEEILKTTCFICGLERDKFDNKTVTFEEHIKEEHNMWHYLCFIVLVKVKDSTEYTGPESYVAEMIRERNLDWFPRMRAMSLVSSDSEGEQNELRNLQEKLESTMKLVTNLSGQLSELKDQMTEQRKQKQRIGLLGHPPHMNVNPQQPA

Compound | effect on number of PAS(+), mucus producing cells (in words) (BN rats [1]; 0.01 mg/kg intratracheally) | number of PAS(+) cells as percent of total number of cells (average ± SEM) (BN rats [1]; [4]) [%] | number of PAS(+) cells as percent of total number of cells (average ± SEM) (BN rats [1]; [5]) [%] | effect on number of PAS(+), mucus producing cells (in words) (BN rats [1]; [6]) | Oedema: area of oedema relative to area of vasculature (average ± SEM) (BN rats [2]; [4]) | Oedema: area of oedema relative to area of vasculature (average ± SEM) (BN rats [2]; [5]) | effect on extent of oedema around the vasculature (in words) (BN rats [2]; [6]) | MAX: contraction at maximal Ach concentration relative to control (mean ± SEM) (Brown Norway (BN) rats; [7]) | ED50: log M acetylcholine (Ach), causing 50% contraction relative to control (mean ± SEM) (Brown Norway (BN) rats; [7]) [log M] | MAX: contraction at maximal Ach concentration relative to control (mean ± SEM) (Brown Norway (BN) rats; [8]) | ED50: log M acetylcholine (Ach), causing 50% contraction relative to control (mean ± SEM) (Brown Norway (BN) rats; [8]) [log M] | effect on tracheal hyper-reactivity to acetylcholine (in words) (Brown Norway (BN) rats; both applied doses (0.01 and 1.0 mg/kg intratracheally)) | IP-3 antagonist activity (in words) (IP-3 receptor) | IC50 Average ± SEM (n) (IP-3 receptor) | IC50 (IP-3 receptor; read-out: Average IC50) [nM] | Eosinophil: eosinophil number/ml BALF (average ± SEM) (BN rats [3]; [4]) [eosinophil number/ml BALF] | Eosinophil: eosinophil number/ml BALF (average ± SEM) (BN rats [3]; [5]) [eosinophil number/ml BALF] | effect on number of eosinophils in the bronchioalveolar lavage (in words) (BN rats [3]; higher doses (1.0 mg/kg intratracheally)) | effect on number of eosinophils in the bronchioalveolar lavage (in words) (BN rats [3]; smallest dose (0.01 mg/kg intratracheally)) | IC50 (IP-3 receptor; read-out: IC50 Average ± SEM (n) (converted)) [nM]
O=S(=O)([O-])OC[C@H]1O[C@@](COS(=O)(=O)[O-])(O[C@H]2O[C@H](COS(=O)(=O)[O-])[C@@H](OS(=O)(=O)[O-])[C@H](OS(=O)(=O)[O-])[C@H]2OS(=O)(=O)[O-])[C@@H](OS(=O)(=O)[O-])[C@@H]1OS(=O)(=O)[O-].[Na+].[Na+].[Na+].[Na+].[Na+].[Na+].[Na+].[Na+] [IIA, sucrose octasulfate octa sodium salt] | notably | 19.2 ± 2.7 | 7.3 ± 1.4 | statistically significantly decreased | 177 ± 10 | 119 ± 7 | significantly decreased | 167 ± 36 | 4.73 ± 0.50 | 131 ± 22 | 4.98 ± 0.30 | notably decreased this elevation | significant IP-3 antagonist activity | 0.26 ± 0.05 (4) μg/ml | 208 | 0.89 ± 0.13 | 0.70 ± 0.08 | the decrease become statistically significant | decreases the extent of it | –
O=S(=O)(O)OC[C@H]1O[C@H](O[C@H]2O[C@H](COS(=O)(=O)O)[C@@H](OS(=O)(=O)O)[C@H](OS(=O)(=O)O)[C@H]2OS(=O)(=O)O)[C@H](OS(=O)(=O)O)[C@@H](OS(=O)(=O)O)[C@@H]1OS(=O)(=O)O [IIB, trehalose octasulfate octa potassium salt] | – | – | – | – | – | – | – | – | – | – | – | – | – | – | 194 | – | – | – | – | 244
O=S(=O)([O-])OC[C@H]1O[C@H](OC[C@H]2O[C@H](O[C@]3(COS(=O)(=O)[O-])O[C@H](COS(=O)(=O)[O-])[C@@H](OS(=O)(=O)[O-])[C@@H]3OS(=O)(=O)[O-])[C@H](OS(=O)(=O)[O-])[C@@H](OS(=O)(=O)[O-])[C@@H]2OS(=O)(=O)[O-])[C@H](OS(=O)(=O)[O-])[C@@H](OS(=O)(=O)[O-])[C@H]1OS(=O)(=O)[O-].[K+].[K+].[K+].[K+].[K+].[K+].[K+].[K+].[K+].[K+].[K+] [IIC, raffinose undecasulfate undeca potassium salt] | – | – | – | – | – | – | – | – | – | – | – | – | significant IP-3 antagonist activity | 0.43 ± 0.05 (3) μg/ml | 238 | – | – | – | – | –
